In brackets after ≈: the same amount, converted by molar mass. Square brackets hold non-standard residues; d marks the D form. Peptide text beside a SMILES is read from it. * marks the point of attachment. ξ: configuration not given here. Decanoyl = CCCCCCCCCC(=O)*; ξF = NC(Cc1ccccc1)C(=O)O; Cbz = O=C(OCc1ccccc1)*; CH2Cl = ClC*
Key:
[1] = target: Disintegrin and metalloproteinase domain-containing protein 17 (Mus musculus, UniProt Q9Z0F8); experiment: Inhibition of mouse ADAM17 expressed in HEK293 cells overexpressed with ACE2 assessed as inhibition of ACE2 shedding incubated for 65 mins in presence of PMA by immunoblotting assay; format: cell-based
Sequence of Disintegrin and metalloproteinase domain-containing protein 17 (Q9Z0F8 whole entry, the tested form may be a part): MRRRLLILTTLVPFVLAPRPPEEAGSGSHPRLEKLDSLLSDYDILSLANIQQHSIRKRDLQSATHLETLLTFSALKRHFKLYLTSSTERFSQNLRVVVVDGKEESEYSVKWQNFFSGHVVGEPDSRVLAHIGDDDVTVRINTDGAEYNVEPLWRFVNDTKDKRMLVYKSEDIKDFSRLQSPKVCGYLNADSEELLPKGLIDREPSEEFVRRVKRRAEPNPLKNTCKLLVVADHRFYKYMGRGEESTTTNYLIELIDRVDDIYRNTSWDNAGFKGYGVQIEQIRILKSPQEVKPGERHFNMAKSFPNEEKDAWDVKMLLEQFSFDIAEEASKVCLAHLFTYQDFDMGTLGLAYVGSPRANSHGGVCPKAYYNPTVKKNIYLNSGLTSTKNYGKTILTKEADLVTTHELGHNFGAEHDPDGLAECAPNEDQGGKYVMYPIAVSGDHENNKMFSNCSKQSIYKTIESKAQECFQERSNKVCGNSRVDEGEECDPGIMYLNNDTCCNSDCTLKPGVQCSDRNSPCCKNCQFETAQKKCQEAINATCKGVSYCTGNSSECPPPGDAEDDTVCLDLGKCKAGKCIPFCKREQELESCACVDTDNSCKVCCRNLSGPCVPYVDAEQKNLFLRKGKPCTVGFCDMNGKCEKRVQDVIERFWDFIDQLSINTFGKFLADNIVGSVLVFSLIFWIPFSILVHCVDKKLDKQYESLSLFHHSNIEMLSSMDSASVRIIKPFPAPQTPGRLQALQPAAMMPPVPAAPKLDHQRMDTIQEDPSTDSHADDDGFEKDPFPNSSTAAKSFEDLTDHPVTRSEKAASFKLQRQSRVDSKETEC

SARS-CoV [2] = experiment: Antiviral activity against SARS-CoV infected in HEK293 cells expressing human ACE2 assessed as inhibition of viral replication measured after 40 hrs by luciferase assay; format: functional, organism-based; settings: Severe acute respiratory syndrome-related coronavirus, HEK293, 40 h
SARS-CoV [3] = experiment: Antiviral activity against SARS-CoV infected in HEK293T cells assessed as reduction in viral replication incubated for 7 hrs by luciferase assay; format: functional, organism-based; settings: Severe acute respiratory syndrome-related coronavirus, HEK-293T
Ebolavirus [4] = experiment: Antiviral activity against Ebolavirus infected in HEK293T cells assessed as reduction in viral replication incubated for 7 hrs by luciferase assay; format: functional, organism-based; settings: Orthoebolavirus, HEK-293T
Procathepsin L [5] = target: T1, Procathepsin L (Homo sapiens, UniProt P07711); experiment: Inhibition of human liver Cathepsin L using Z-Phe-Arg-AMC as substrate incubated for 30 mins by fluorometric assay
T1 sequence (P07711 whole entry): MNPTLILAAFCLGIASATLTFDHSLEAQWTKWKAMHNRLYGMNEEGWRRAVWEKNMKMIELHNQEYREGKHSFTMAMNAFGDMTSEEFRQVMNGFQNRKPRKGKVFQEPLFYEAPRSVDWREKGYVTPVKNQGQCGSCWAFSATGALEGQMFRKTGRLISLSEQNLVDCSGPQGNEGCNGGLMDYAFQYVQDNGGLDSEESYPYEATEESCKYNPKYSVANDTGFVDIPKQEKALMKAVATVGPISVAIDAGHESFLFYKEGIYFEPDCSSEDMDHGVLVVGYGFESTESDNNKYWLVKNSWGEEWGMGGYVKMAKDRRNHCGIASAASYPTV

SARS-CoV [6] = format: functional, organism-based; settings: Severe acute respiratory syndrome-related coronavirus, Vero C1008
[7] = tested on: Middle East respiratory syndrome-related coronavirus; experiment: Antiviral activity against recombinant MERS-CoV pseudovirus infected in Huh-7 cells assessed as inhibition of viral replication measured after 72 hrs by luminometer; format: functional, organism-based; settings: Huh-7, 72 h
[8] = Cytotoxicity against human Huh-7 cells incubated for 3 days by XTT assay; format: toxicity, cell-based; settings: time 3 day
[9] = Selectivity index. ratio of CC50 for cytotoxicity against human Huh-7 cells to IC50 for antiviral activity against MERS-CoV pseudovirus infected in Huh-7; format: toxicity, cell-based; settings: read-out: Ratio CC50/IC50
SARS-CoV [10] = format: functional, organism-based; settings: Severe acute respiratory syndrome-related coronavirus, Vero C1008, 48 h
SARS-CoV [11] = format: functional, organism-based; settings: Severe acute respiratory syndrome-related coronavirus, BJ01, Vero C1008, 64 h
[12] = Cytotoxicity against African green monkey Vero E6 cells by MTT assay; format: toxicity, cell-based, Vero C1008; settings: chlorocebus sabaeus
[13] = Selectivity index. ratio of CC50 for cytotoxicity against African green monkey Vero E6 cells to EC50 for antiviral activity against wild type SARS-CoV BJ01 infected in Vero E6 cells; format: toxicity, cell-based, Vero C1008; settings: read-out: Ratio CC50/EC50
SARS-CoV [14] = format: functional, organism-based; settings: Severe acute respiratory syndrome-related coronavirus, HEK-293T, 48 h
[15] = Cytotoxicity against human HEK293T cells by XTT assay; format: toxicity, cell-based, HEK-293T
Procathepsin L [16] = target: T1, Procathepsin L; experiment: Inhibition of recombinant Cathepsin L (unknown origin) using Z-Phe-Arg-AMC as substrate by fluorometric assay
SARS-CoV-2 [17] = format: functional, organism-based; settings: Severe acute respiratory syndrome coronavirus 2, Vero C1008, 96 h
[18] = Cytotoxicity against African green monkey Vero E6 cells by CCK-8 assay; format: toxicity, cell-based, Vero C1008; settings: chlorocebus sabaeus
[19] = target: Replicase polyprotein 1ab (Severe acute respiratory syndrome coronavirus 2) (UniProt P0DTD1); experiment: Inhibition of recombinant SARS-COV2 main protease using Mca-AVLQ-SGFR-Lys-NH2 as substrate at 1 uM by FRET based cleavage assay
SARS-CoV [20] = experiment: Antiviral activity against SARS-CoV infected in HeLa cells expressing human TMPRSS2 assessed as inhibition of viral replication measured after 20 hrs by fluorescence microscopy; format: functional, organism-based; settings: Severe acute respiratory syndrome-related coronavirus
SARS-CoV [21] = experiment: Antiviral activity against SARS-CoV infected in HeLa cells expressing human TMPRSS2 assessed as inhibition of viral replication at 100 uM measured after 20 hrs by fluorescence microscopy; format: functional; settings: Severe acute respiratory syndrome-related coronavirus
SARS-CoV [22] = experiment: Antiviral activity against SARS-CoV infected in HeLa cells expressing human TMPRSS2 assessed as inhibition of viral replication at 10 uM measured after 20 hrs in presence of EST by fluorescence microscopy; format: functional; settings: Severe acute respiratory syndrome-related coronavirus
SARS-CoV-2 [23] = format: functional, organism-based; settings: Severe acute respiratory syndrome coronavirus 2, Vero C1008, 48 h
Zika virus = experiment: Antiviral activity against Zika virus MR766 infected in Vero cells assessed as reduction in viral replication by plaque reduction assay; format: functional, organism-based
Ebolavirus [24] = format: functional, organism-based; settings: Orthoebolavirus, Vero C1008, 120 h
SARS-CoV-2 [25] = format: functional; settings: Severe acute respiratory syndrome coronavirus 2, Vero C1008; time 18 hrs; read-out: ED50 (the source's name)
[26] = Antiviral activity against Human coronavirus NL63 infected in HEK293T cells expressing human ACE2 assessed as inhibition of viral replication incubated for 2 days by Dual-Glo luciferase assay; format: functional, cell-based; settings: Human coronavirus NL63, HEK-293T, 48 h
[27] = tested on: Middle East respiratory syndrome-related coronavirus; experiment: Antiviral activity against recombinant MERS-CoV pseudovirus infected in Vero cells assessed as inhibition of viral replication incubated for 2 days by Dual-Glo luciferase assay; format: functional, organism-based; settings: 48 h
[28] = Cytotoxicity against human HEK293T cells; format: toxicity, cell-based, HEK-293T
[29] = target: Replicase polyprotein 1ab (Severe acute respiratory syndrome coronavirus 2, UniProt P0DTD1); experiment: Inhibition of SARS-COV2 main protease using Mca-AVLQ-SGFR-K as substrate by Fluorescence microplate reader assay
[30] = tested on: Middle East respiratory syndrome-related coronavirus; experiment: Antiviral activity against wild type MERS-CoV infected in HEK293T/17 cells assessed as inhibition of viral replication by immunoblotting assay; format: functional, organism-based
SARS-CoV-2 [31] = format: functional, organism-based; settings: Severe acute respiratory syndrome coronavirus 2, Vero C1008, 48 h; remark: listed apart in the source

## CC(C)CC(CC(=O)NO)C(=O)N[C@H](C(=O)N[C@@H](C)C(=O)NCCN)C(C)(C)C (stereo partly specified)
[1]
  IC50: 0.2 µM

## CC(C)[C@H](NC(=O)OCc1ccccc1)C(=O)NC(C=O)Cc1ccccc1 (stereo partly drawn) (Cbz-Val-[ξF]-aldehyde)
SARS-CoV [2]
  EC50: 0.1 µM

## CC(C)(C)OC(=O)N[C@@H](Cc1c[nH]c2ccccc12)C(=O)NNC(=O)OCC(=O)N1CCCc2ccccc21
SARS-CoV [3]
  IC50: 273 µM
Ebolavirus [4]
  IC50: 193 µM
Procathepsin L [5]
  IC50: 6.9 µM

## CC(C)C[C@H](CC(=O)NO)C(=O)N[C@@H](Cc1ccc2ccccc2c1)C(=O)N[C@@H](C)C(N)=O
[1]
  IC50: 0.1 µM

## COc1ccc(S(=O)(=O)O)cc1/N=N/c1c(S(=O)(=O)O)cc2cc(Nc3nc(Nc4ccccc4)nc(Nc4cc(C)c(/N=N/c5cc(S(=O)(=O)O)cc6cc(S(=O)(=O)O)cc(O)c56)cc4OC)n3)ccc2c1O
SARS-CoV [6]
  IC50: 3.89 µM
[7]
  IC50: 0.6 µM
[8]
  CC50 at 72 h: 26.9 µM
[9]
  selectivity ratio: 45

## CCC(CC)COC(=O)[C@H](C)N[P@](=O)(OC[C@H]1O[C@@](C#N)(c2ccc3c(N)ncnn23)[C@H](O)[C@@H]1O)Oc1ccccc1
SARS-CoV [10]
  EC50: 0.069 µM

## O=C(OC[C@H]1O[C@@H](OC(=O)c2cc(O)c(O)c(O)c2)[C@H](OC(=O)c2cc(O)c(O)c(O)c2)[C@H](OC(=O)c2cc(O)c(O)c(O)c2)[C@@H]1O)c1cc(O)c(O)c(O)c1
SARS-CoV [11]
  EC50: 4.5 µM
[12]
  CC50: 1.08 µM
[13]
  selectivity ratio: 240

## C/C(=N\NC(N)=S)c1cccs1
SARS-CoV [14]
  EC50: 6.4 µM
[15]
  CC50: < 100 µM
Procathepsin L [16]
  IC50: 5.33 µM

## Cc1cc(C(=O)N[C@@H](C)C(=O)N[C@H](C(=O)N[C@@H](CC(C)C)C(=O)N[C@H](/C=C\C(=O)OCc2ccccc2)C[C@@H]2CCNC2=O)C(C)C)no1
SARS-CoV-2 [17]
  EC50: 16.8 µM

## O=c1cc(-c2ccc(O)c(O)c2)oc2cc(O)cc(O)c12 [LUTEOLIN]
SARS-CoV [11]
  EC50: 10.6 µM
[12]
  CC50: 0.155 µM
[13]
  selectivity ratio: 14.6

## O=C[C@H](C[C@@H]1CCNC1=O)NC(=O)[C@H](CC1CCCCC1)NC(=O)c1cc2ccccc2[nH]1
[18]
  CC50: > 100 µM
[19]
  inhibition: 100%

## CN(C)C(=O)COC(=O)Cc1ccc(OC(=O)c2ccc(NC(=N)N)cc2)cc1 [CAMOSTAT]
SARS-CoV [20]
  IC50: 10 µM
SARS-CoV [21]
  inhibition at 100 µM: 65%
SARS-CoV [22]
  inhibition at 10 µM: > 95%

## O=c1c(O)c(-c2ccc(O)c(O)c2)oc2cc(O)cc(O)c12 [QUERCETIN]
[12]
  CC50: 3.32 µM

## Cc1cccc(C)c1OCC(=O)N[C@@H](Cc1ccccc1)[C@@H](O)C[C@H](Cc1ccccc1)NC(=O)[C@H](C(C)C)N1CCCNC1=O [LOPINAVIR]
SARS-CoV-2 [23]
  EC50: 26.1 µM

## Nc1nc2c(ncn2CCC(CO)CO)c(=O)[nH]1 [PENCICLOVIR]
[18]
  CC50: > 400 µM
SARS-CoV [10]
  EC50: 96 µM

## NC(=O)c1nc(F)cnc1O
[18]
  CC50: > 400 µM
Zika virus
  EC50: 3.5 µg/mL (≈ 22.3 µM)
Ebolavirus [24]
  EC50: 10.5 µg/mL (≈ 66.8 µM)

## CCN(CC)CCCC(C)Nc1ccnc2cc(Cl)ccc12 (stereo unspecified) [CHLOROQUINE]
SARS-CoV-2 [25]
  EC50: 4.4 µM
SARS-CoV-2 [23]
  EC50: 1.13 µM
[18]
  CC50: > 100 µM

## CN1CCN(C(=O)N[C@@H](Cc2ccccc2)C(=O)N[C@H](/C=C/S(=O)(=O)c2ccccc2)CCc2ccccc2)CC1 [K-777]
[26]
  IC50: < 0.007 µM
[27]
  IC50: 0.046 µM
[28]
  CC50: > 10 µM

## Cn1sc(=O)n(Cc2ccccc2)c1=O
[29]
  IC50: 2.5 µM

## NC(=O)c1ncn([C@@H]2O[C@H](CO)[C@@H](O)[C@H]2O)n1 [RIBAVIRIN]
[18]
  CC50: > 400 µM

## O=C[C@H](C[C@@H]1CCNC1=O)NC(=O)[C@H](Cc1cccc(F)c1)NC(=O)c1cc2ccccc2[nH]1
[18]
  CC50: > 100 µM
[19]
  inhibition: 86%

## CCCCCCCCCC(=O)N[C@@H](CCCNC(=N)N)C(=O)N[C@H](C(=O)N[C@@H](CCCCN)C(=O)N[C@@H](CCCNC(=N)N)C(=O)CCl)C(C)C (Decanoyl-RVKR-CH2Cl)
[30]
  IC50: 75 µM

## CN1CCN(c2ccc(CNC(=O)c3ccno3)cc2)CC1
[15]
  CC50: > 100 µM

## CCN(CCO)CCCC(C)Nc1ccnc2cc(Cl)ccc12 (stereo unspecified) [HYDROXYCHLOROQUINE]
SARS-CoV-2 [31]
  EC50: 0.72 µM

Source: ChEMBL document CHEMBL5226291, “The race to treat COVID-19: Potential therapeutic agents for the prevention and treatment of SARS-CoV-2” (Eur J Med Chem, 2021)
